{"source": "patent US20240148749A1", "about": "(priority 2021, published 2024)", "system": "CLP mice", "assay": "Survival after cecal ligation and puncture (CLP) model of sepsis", "assay_type": "in vivo, mouse", "conditions": "CLP-MnTBAP mice, 24 h after CLP; MnTBAP 10 mg/kg IP every 12 h for 48 h", "protocol": "A log-rank (Mantel-Cox) p value for trend was calculated.\nWe used peritonitis induced by CLP as a model of sepsis (Rittirsch et al., 2009). Briefly, animals were anesthetized with ketamine (Imalgene® 1000 100 mg/kg, Merial, France) and Xylazine (Rompun® 2% 20 mg/kg, Bayer, Germany) prior to surgery. After laparotomy, caecum was ligatured at the distal third with a 4.0 suture and the distal part was perforated twice with a 21 Gauge needle.\nFor use it is dissolved following the guidance provided by the manufacturer.\nClinical score was assessed 6, 12 and 24 hours and 21 days after CLP using a modified SmithKline Beecham, Harwell, Imperial College and Royal London Hospital phenotype assessment (SHIRPA) (Rogers et al., 1997) of the maximum score of fourteen. Weight, temperature and locomotor activity using an open field box were measured at the same time points. We determined survival rate twice a day for 21 days after CLP. The symptoms included in the a modified SmithKline Beecham, Harwell, Imperial College and Royal London Hospital phenotype assessment (SHIRPA) are tremors, periorbital exudates, piloerection, lethargy, vocalisation, positional passivity, no escapement to threat, long transfer arousal and diarrhoea. Each condition was scored from 0 to 2.\nExperimental protocols were conducted in accordance with the French and European regulations on Animal Welfare and with Public Health Service recommendations. The experiments were performed on C57BL/6JRj mice (male and female) purchased from Janvier Laboratory. Mice were housed in cages in groups of 7, in a temperature (22±1.5° C.) and humidity-controlled environment, with a 12 h light/dark cycle. All animals used in the study were between 10 and 12 weeks old. Sample-size estimates for animal experiments were based on prior animal-modelling studies used in the Unit for the investigation of caecal ligation and puncture (CLP).\nAt the end, two groups were compared: CLP-Placebo, CLP-BMX-010. We determined survival rate twice a day for 4 days after CLP.”", "data": [{"smiles": "O=C(O)c1ccc(/C2=C3\\C=CC(=N3)/C(c3ccc(C(=O)O)cc3)=c3/cc/c4[n]3[Mn]([Cl])[n]3c2ccc3/C(c2ccc(C(=O)O)cc2)=C2/C=CC(=N2)\\C=4c2ccc(C(=O)O)cc2)cc1", "note": "[MnTBAP, Manganese (III) tetrakis (4-benzoic acid)porphyrin chloride]", "values": [{"measurement": "mice alive", "result": 66, "unit": "%"}]}]}
